This note sets out measurements from patent US9782411B2, “{4-[5-(3-chloro-phenoxy)-oxazolo[5,4-d]pyrimidin-2-yl]-2,6-dimethyl-phenoxy}-acetic acid for use in the prevention or treatment of acute kidney injury” (Sanofi, priority 2013, dated 2017).

Some results are limits rather than exact numbers.

One data set concerns RPTEC. Briefly: Tunicamycin-induced apoptosis assay in RPTEC (Caspase-Glo 3/7). The class given is cell-based. The note with it: Homo sapiens, read-out: EC50 inhibition of tunicamycin-induced apoptosis (caspase 3/7 activity). The method, then: The effect of compound A on tunicamycin (TN)-induced apoptosis in RPTEC was measured by the mean of the Caspase-Glo 3/7 assay kit (Promega). Briefly, RPTEC cells (Lonza) were seeded in 96 multiwell white plates at 30×10^3 cells per well in REGM (REBM medium plus 0.5% FCS plus Single quots, Lonza) and allowed to adhere for 24 h. After 24 h, complete medium was replaced by serum and supplements free medium (56 μL/well). Cells were pre-treated for 30 min by compound A (final concentrations 0.3-30 μM, 7 μL) followed by addition of tunicamycin (TN, final concentration, 0.1 μg/mL, 7 μL). After 24 hours at 37° C. 5% CO2, 70 μL of Caspase-Glo reagent were added and culture plate placed under shaking for 1 hour. Luminescence was recorded by the mean of the Envision reader (Perkin Elmer). Results are expressed as percent inhibition of TN-induced apoptosis.

The next data set deals with CD1 mice. Briefly: Mouse model of rhabdomyolysis-induced renal injury (glycerol). The class given is in vivo. Conditions: 10 mg/kg p.o. 1 hour before glycerol; 24 h. The method, then: Swiss (CD1) male mice (n=5-15, 13-14 weeks old) (Charles River Laboratory, France) received oral administration of compound A at 0.3, 1, 3 and 10 mg/kg or vehicle article (methylcellulose 0.6%—tween 80 0.5% in water) within a volume of administration of 10 mL/kg, one hour before glycerol injection. Intramuscular injection of glycerol (50% in PBS v/v) or vehicle article (PBS) was performed into hindlimbs (2 injections per leg, gastrocnemius and rectus femoris) at 8 mL/kg under pentobarbital (33 mg/kg) and ketamine (40 mg/kg) anaesthesia. Twenty-four hours later, blood was collected, centrifuged (3000 g, 10 min) and heparinised plasma frozen for creatinine evaluation using a biochemical analyser (P400, Horiba, France). Results are expressed as mean+/−s.e.m.

Data set [1] is described as follows: Pharmacokinetics in male Fisher rat. Conditions: in vivo, po, 3 mg/kg p.o.
For another data set, the target named is S1P1 (Homo sapiens, UniProt P21453). Briefly: Impedance assay (CEREP), CHO. The class given is cell-based. The arrangement: host or cells: CHO (PathHunter). Conditions: 10% FBS + 0.1% BSA. The text has this: The Impedance Assay from CEREP was used to determine the EC50 activity of compound A, BAF-312 and fingolimod on S1P1.
Sequence of S1P1 (P21453 whole entry): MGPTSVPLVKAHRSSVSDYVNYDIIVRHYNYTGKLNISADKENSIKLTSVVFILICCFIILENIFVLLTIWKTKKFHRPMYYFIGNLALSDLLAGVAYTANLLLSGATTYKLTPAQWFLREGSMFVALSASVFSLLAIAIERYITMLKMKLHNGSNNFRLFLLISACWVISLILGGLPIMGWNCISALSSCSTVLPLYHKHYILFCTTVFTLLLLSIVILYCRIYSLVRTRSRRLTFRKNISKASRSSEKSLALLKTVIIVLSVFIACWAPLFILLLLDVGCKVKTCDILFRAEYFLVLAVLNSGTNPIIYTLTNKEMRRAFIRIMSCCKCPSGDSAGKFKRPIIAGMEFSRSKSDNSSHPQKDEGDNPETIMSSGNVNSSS
The target in data set [2] is T1, human ERG (ether-a-go-go related gene) potassium channel (Homo sapiens, UniProt Q12809).
T1 construct: host or cells: CHO (Chinese Hamster Ovary)
T1 sequence (Q12809 whole entry): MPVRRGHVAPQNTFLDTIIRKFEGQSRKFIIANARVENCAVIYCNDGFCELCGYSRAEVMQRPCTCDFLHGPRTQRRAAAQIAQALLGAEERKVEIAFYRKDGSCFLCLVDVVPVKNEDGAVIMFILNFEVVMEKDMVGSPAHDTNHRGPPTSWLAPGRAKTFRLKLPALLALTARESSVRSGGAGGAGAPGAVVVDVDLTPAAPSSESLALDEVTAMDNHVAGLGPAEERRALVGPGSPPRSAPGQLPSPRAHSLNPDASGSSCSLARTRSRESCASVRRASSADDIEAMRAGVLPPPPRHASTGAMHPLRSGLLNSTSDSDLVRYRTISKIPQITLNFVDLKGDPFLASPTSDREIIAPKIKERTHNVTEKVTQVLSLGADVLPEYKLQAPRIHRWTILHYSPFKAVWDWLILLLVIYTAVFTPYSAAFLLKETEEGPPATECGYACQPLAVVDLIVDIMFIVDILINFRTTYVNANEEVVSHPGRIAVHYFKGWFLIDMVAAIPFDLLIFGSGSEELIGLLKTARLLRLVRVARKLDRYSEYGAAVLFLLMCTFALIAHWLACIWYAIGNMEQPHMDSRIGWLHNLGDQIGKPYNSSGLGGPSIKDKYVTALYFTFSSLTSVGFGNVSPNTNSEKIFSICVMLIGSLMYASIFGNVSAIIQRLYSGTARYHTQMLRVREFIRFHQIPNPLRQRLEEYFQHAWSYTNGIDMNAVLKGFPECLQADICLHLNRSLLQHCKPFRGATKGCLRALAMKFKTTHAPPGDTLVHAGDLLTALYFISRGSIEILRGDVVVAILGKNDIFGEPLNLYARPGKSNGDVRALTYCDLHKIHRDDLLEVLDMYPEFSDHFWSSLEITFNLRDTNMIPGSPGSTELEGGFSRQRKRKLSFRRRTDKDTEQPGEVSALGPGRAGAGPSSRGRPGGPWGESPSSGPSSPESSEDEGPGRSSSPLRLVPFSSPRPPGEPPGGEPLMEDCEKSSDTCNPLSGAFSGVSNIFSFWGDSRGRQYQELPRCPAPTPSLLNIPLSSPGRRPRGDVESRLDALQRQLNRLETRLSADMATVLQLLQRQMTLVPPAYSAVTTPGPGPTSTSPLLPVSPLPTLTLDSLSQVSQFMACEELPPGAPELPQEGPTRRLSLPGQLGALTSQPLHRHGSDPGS
Description: hERG assay (patch clamp, CHO cells). The class given is cell-based. The method, then: Recombinant CHO (Chinese Hamster Ovary) cell line expressing the human ERG (ether-a-go-go related gene) potassium channel (Cytomyx Catalogue Number: CYL3002) has been cultured according to the following protocol. When necessary a culture has been restarted from frozen aliquots. The aliquots of frozen cells (1 mL) were rapidly warmed to 37° C. and first replated in a 75 cm^2 flask (Corning). The volume was then adjusted to 10 mL with the α-Minimum Essential Medium (Gibco 32571-028) containing 10% fetal calf serum. The medium has been renewed after 24 h and 1% geneticin (G418, Gibco 10131) has been added to prevent cellular derivation. […]
The hERG current was activated in response to voltage steps (2 s) from a holding potential of −80 mV to a test potential of +20 mV followed by a repolarization to −100 mV. Voltage steps were applied at 20 s intervals. hERG current was measured as the tail deactivating current at −100 mV. After a 3 minutes period for baseline measurements, compound A effects were measured 4-6 minutes after the change of solution.
The currents were analyzed using a database and analysis software DataXpress 1.0 (Axon Instruments/Molecular Devices).
Where “I” was the current measured after drug effect, “Irisperidone” was the current measured after the effect of the specific hERG-blocker and “Ibaseline” was the current measured before the superfusion of drug.

The term AUC denotes concentration integrated over time. A low value points to low exposure. One may read the Cmax as the maximum level reached in the sampled fluid or tissue. One may read the IC50 as the concentration that inhibits the measured activity by half. Low values mean greater potency in that assay, high ones weaker potency in that assay. Take `Cc1cc(-c2nc3cnc(Oc4cccc(Cl)c4)nc3o2)cc(C)c1OCC(=O)O` [Compound A, {4-[5-(3-chloro-phenoxy)-oxazolo[5,4-d]pyrimidin-2-yl]-2,6-dimethyl-phenoxy}-acetic acid]: the EC50 in the data set with RPTEC lay within 3000 to 10000 nM. Besides, in the data set on CD1 mice, the “Prevention of deterioration of renal function (plasma creatinine)” value is listed as around 85%. In data set [1], the exposure (AUC) was 13000 ng·h/mL and the Cmax was found to be 2560 ng/mL. At S1P1, the EC50 is 65 nM. The compound further gave an IC50 in data set [2] above 30000 nM.
